Patent US6555126B2, “Method for treating, controlling, and preventing Diabetes Mellitus” (Diabex, Inc., priority 1999, dated 2003)

Tests used:
rats (Rattus rattus) = assay: LD 50 determination in rats, single subcutaneous dose; type: in vivo; conditions: one single dose subcutaneously
Procedure: 1. LD 50: For this determination, 59 rats (Rattus rattus) of both sexes were used with body weights of 200-240 grams to determine the LD50. The rats were divided into groups consisting of 5-6 rats each.
The rats were fed standard laboratory pellet diet and water ad libitum. Linalool was given as one single dose subcutaneously to rats in gradually increasing doses of 0.2 ml/kg body weight, […], 0.3 ml/kg, 0.35 ml/kg, 0.40 ml/kg, 0.45 ml/kg, 0.50 ml/kg, 0.55 ml/kg, 0.60 ml/kg, 0.65 ml/kg.
LD 50 was determined to be 0.63 ml/kg body weight.

normoglycemic rats = assay: Hypoglycemic effect of a single intraperitoneal injection in normoglycemic rats; type: in vivo
Text: (§1) Preparation of Animals: For each experiment, eight (8) overnight fasted normoglycemic and diabetic rats were used. The animals were kept in the experimental animal laboratory for three days with free access to food and water.
(§2) On the day of the experiment, blood samples were collected at zero time before IP injection of the test substance (Riedel De Hein—Germany), and at intervals as given in Table 1 and 2. Blood samples were drawn from the ear vein in 100 micro millimeter heparinized capillary tubes.
(§3) Blood glucose concentrations were determined according to glucose oxidase method, using glucose enzymatic kits (Biomerioux France).
(§4) The percentage change in glycaemia was calculated.
(§5) For control animals, sterile saline solution was used instead of Linalool.
(§6) Data are expressed as means and standard error of the mean (S.E.M.) statistical analysis were performed using student's t test.

[1] = tested on: Streptozocin diabetic rats; assay: Hypoglycemic effect of a single intraperitoneal injection in Streptozocin diabetic (hyperglycemic) rats; type: in vivo
Procedure: as §1
Hyperglycemia was induced in the diabetic group of rats by a single intraperitoneal injection of Streptozocin (Upjohn Co, Kalamazoo, Mich., USA). […] body weight-freshly dissolved in citrate phosphate buffer with pH adjusted to 4.5.
Diabetes was confirmed one week after administration of Streptozocin by determining the fasting blood glucose concentration. […] The fasting blood glucose concentration in normal rats is 90-120 mg/dl.
as §2, §3, §4, §5, §6

[2] = tested on: diabetic volunteers (Diabetes Mellitus); assay: Limited clinical study in diabetic volunteers; type: in vivo, human; parameters: key to readings (blood glucose) / Fasting Blood Sugar: blood glucose in mg/dl
Procedure: The study was conducted with strict and continuous monitoring of all vital physical parameters of all volunteers. No clinical or biochemical side effects were observed during or after the test periods. Special attention was made while monitoring Blood Urea, Serum Creatinine, SGPT, Cholesterol, and Triglycerides.
The study involved over 200 diabetic volunteers with different types of Diabetes Mellitus and from different countries, and of both sexes. The breakdown was as follows:
Group One: Two (2) volunteers were new Diabetes Mellitus patients (Virgin cases).
These volunteers had never been treated for the disease and never taken any of the known and standard Diabetes Mellitus medications.
Started using Linalool Enteric Coated Softgels 0.45 ml 3 times daily with meals, on Feb. 22nd, 1999.
Group Two: One (1) volunteer had hyper insulinemia with readings of 400 mg/dl of glucose
The study involved over two hundred diabetic volunteers of both sexes, who had the disease from 3 to 25 years. In various lots, the volunteers were on insulin alone, insulin and hypoglycemic drugs, or hypoglycemic drugs alone. The patients took the product in the form of softgel enteric coated capsules (0.5 ml Linalool and 100 mg vitamin E) one capsule with meals three times a day. The duration of treatment was minimum three months. The product was given along with the classical hypoglycemic treatment (insulin and others). These classical hypoglycemic medications, Insulin—morning and evening, and Daonil (Glibenclamide 5 mg), Glucaphage (metformin 850 mg and other medications, were decreased gradually depending on the monitored improvements of the patient condition.

[3] = Group Two volunteer, hyper insulinemia, June 24, 1999

## C=CC(C)(O)CCC=C(C)C (stereo not drawn) [Linalool, 3,7 dimethyl-1,6-octadien-3-ol]
Rats (Rattus rattus)
  LD 50: 0.63 ml/kg body weight
Normoglycemic rats; Table 1, normoglycemic rats, 0.2 ml/kg single i.p. injection, 15 min
  Change in blood glucose % at 15 min.: −36.1%
Normoglycemic rats; Table 1, normoglycemic rats, 0.2 ml/kg single i.p. injection
  Change in blood glucose % at 1 h.: −35.2%
Normoglycemic rats; Table 2, normoglycemic rats, 0.2 ml/kg single i.p. injection, mean ± S.E.M.
  Change in blood glucose % at 1 h.: −35.2 ± 6.2 %
Normoglycemic rats; Table 2, normoglycemic rats, 0.2 ml/kg single i.p. injection, 4 h, mean ± S.E.M.
  Change in blood glucose % at 4 h.: −40.9 ± 8.2 %
Normoglycemic rats; Table 2, normoglycemic rats, 0.2 ml/kg single i.p. injection, 24 h, mean ± S.E.M.
  Change in blood glucose % at 24 h.: −18.9 ± 4.4 %
Normoglycemic rats; first of two values, normoglycemic rats (first hour)
  hypoglycemic activity within the first four hours after the administration: 33.2%
Normoglycemic rats; normoglycemic rats
  time of highest hypoglycemic activity after the intraperitoneal injection: four
Normoglycemic rats; normoglycemic rats treated by Linalool
  decrease in blood glucose concentration within the first 15 min: 36.1%
Normoglycemic rats; normoglycemic rats, i.p. injection
  hypoglycemic activity (in words): significant hypoglycemic activity
[1]; Table 1, hyperglycemic rats, 0.2 ml/kg single i.p. injection, 15 min
  Change in blood glucose % at 15 min.: −32.1%
[1]; Table 1, hyperglycemic rats, 0.2 ml/kg single i.p. injection
  Change in blood glucose % at 1 h.: −35%
[1]; Table 2, hyperglycemic rats, 0.2 ml/kg single i.p. injection, mean ± S.E.M.
  Change in blood glucose % at 1 h.: −36.4 ± 8.6 %
[1]; Table 2, hyperglycemic rats, 0.2 ml/kg single i.p. injection, 4 h, mean ± S.E.M.
  Change in blood glucose % at 4 h.: −43.7 ± 6.6 %
[1]; Table 2, hyperglycemic rats, 0.2 ml/kg single i.p. injection, 24 h, mean ± S.E.M.
  Change in blood glucose % at 24 h.: −55.8 ± 6.2 %
[1]; hyperglycemic rats
  time of highest hypoglycemic activity after the injection: 24 h
[1]; hyperglycemic rats treated by Linalool
  decrease in blood glucose concentration within the first 15 min: 32.1%
[1]; hyperglycemic rats, i.p. injection
  hypoglycemic activity (in words): significant hypoglycemic activity
[1]; second of two values, hyperglycemic rats (first hour)
  hypoglycemic activity within the first four hours after the administration: 36.4%
[2]; Group Three volunteer 4, Dec. 17
  readings (blood glucose): 175 mg/dL
[2]; Group Three volunteer 4, Dec. 24
  readings (blood glucose): 163
[2]; Group Three volunteer 4, Jul. 26, 1999
  readings (blood glucose): 105 mg/dL
[2]; Group Three volunteer 4, July 14th, taken off all medication
  clinical outcome (physician's judgement): CURED
[2]; Group Three volunteer 4, Jun. 4, 1999
  HbAlc Readings (lowered to): 6.18%
[2]; Group Three volunteer 4, Jun. 18
  readings (blood glucose): 109
[2]; Group Three volunteer 4, Jun. 26
  readings (blood glucose): 105
[2]; Group Three volunteer 4, date not stated
  HbAlc Readings, starting value (lowered from): 9.3%
[2]; Group Three volunteer 5, diabetic over 20 years, Jul. 27, 1998
  Fasting Blood Sugar: 233 mg/dL
[2]; [3]
  HbAlc: 7.5%
  Insulin, Fasting: 25.6 uU/mL
  Serum Glucose, Fasting: 222 mg/dL
[2]; Group Two volunteer, hyper insulinemia, May 17, 1999, untreated reading 197 mg/dl
  Serum Glucose, Fasting: 200 mg/dL
[2]; Group Two volunteer, hyper insulinemia, May 17, 1999, untreated reading 8.2%
  HbAlc: 8.1%
[2]; Group Two volunteer, hyper insulinemia, May 17, 1999, untreated reading 42 uU/mL
  Insulin, Fasting: 18.40 uU/mL
[2]; Group Two volunteer, from 42 uU/mL to 25.6
  reduction of fasting insulin level: ~50%
[2]; volunteer 5, Aug. 17, 1998
  Fasting Blood Sugar: 190
  HbAlc: 10.1%
[2]; volunteer 5, Jan. 27, 1999
  Fasting Blood Sugar: 167
  HbAlc: 7.0%
[2]; volunteer 5, Jul. 27, 1998
  HbAlc: 11.2%
[2]; volunteer 5, Nov. 1, 1998
  Fasting Blood Sugar: 114
[2]; volunteer 5, Nov. 12, 1998
  Fasting Blood Sugar: 135
  HbAlc: 7.5%
[2]; volunteer 5, Sep. 17, 1998
  Fasting Blood Sugar: 166
  HbAlc: 9.7%

## insulin: short acting soluble insulin preparation, 5 units injected IP as comparator [reference compound]
Normoglycemic rats; insulin injection, called insignificant, rat group not stated
  decrease in blood glucose concentration within the first 15 min: 17.1%
Normoglycemic rats; normoglycemic rats, 5 units of insulin injected IP
  decrease in blood glucose concentration after one hour: 49%
[1]; hyperglycemic rats, 5 units of insulin injected IP
  decrease in blood glucose concentration after one hour: 47.1%
